Entries after “also recorded” stand apart in the source; their conditions may differ. Where no end group is shown, it is not given here.

The values below come from patent US6071710A, “Antikinin compounds and uses thereof” (MUSC Foundation for Research Development, priority 1997, dated 2000).

In one data set the target is T1, kinin B2 receptors (Rattus norvegicus, UniProt P25023).
T1 construct: endogenous in cells; host or cells: primary rat aortic vascular smooth muscle cells (male Sprague-Dawley), passage 2-4
T1 sequence (P25023 1-396): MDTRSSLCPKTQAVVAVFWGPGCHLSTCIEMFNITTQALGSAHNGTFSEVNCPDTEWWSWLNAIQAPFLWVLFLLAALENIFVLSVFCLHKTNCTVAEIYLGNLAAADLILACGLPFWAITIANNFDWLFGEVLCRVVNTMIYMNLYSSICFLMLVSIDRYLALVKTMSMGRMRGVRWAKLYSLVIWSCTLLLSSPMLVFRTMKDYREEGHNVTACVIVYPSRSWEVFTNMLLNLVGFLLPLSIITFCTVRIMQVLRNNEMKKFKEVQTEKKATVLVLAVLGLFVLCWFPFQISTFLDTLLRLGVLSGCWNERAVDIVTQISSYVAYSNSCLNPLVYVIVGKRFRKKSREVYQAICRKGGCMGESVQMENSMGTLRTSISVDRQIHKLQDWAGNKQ
The experiment in a line: [3H]bradykinin binding assay in VSMC. To be noted: rat aortic smooth muscle cells. How it is done:
VSMC grown in 6-well plates were washed with and allowed to equilibrate with 1 ml of binding buffer (25 mM TES, 1 mM phenanthroline, 15 μM captopril, 0.1% BSA, pH 7.0). Saturation binding experiments were performed by incubating cells with [^-3 H] bradykinin (60,000 cpm/well) and varying the concentration of unlabeled bradykinin (5×10^-11 -1×10^-6 M) in binding buffer for 2 h at 4° C. Cells were washed 3 times with 2 ml of ice-cold binding buffer and solubilized for 10 min in 1% SDS, 0.1 M NaOH, 0.1 M Na2 CO3 solution and counted for radioactivity. Data were analyzed using the LIGAND program to determine the affinity constants and the receptor number.

For data set [1], the system named is spontaneously hypertensive rats. The data set can be described thus: Mean systemic arterial blood pressure after brain injection of BK fragments. The note with it: hypertensive anesthetized rats, preliminary for BK1-7, BK2-7. Type of data set: in vivo, rat. How it is done:
Experiments were performed on male spontaneously hypertensive rats weighing 250-350 g. Anesthesia and surgical procedures are described (15-17). Following the surgical procedures, animals were allowed to stabilize for 30 minutes. Injections were then made unilaterally into the rostral ventral lateral medulla oblongata. In any given experiment, not more than four doses of the BK fragments were given. Successive injections were alternated between sides after an intervening period of 20 minutes. Mean arterial pressure was measured from a femoral arterial line with a transducer (Statham Laboratories, Inc. Hato Rey, Puerto Rico) and recorded using a polygraph (Grass Instrument Co., Quincy, Mass.). Values shown are the mean changes ± sem.

For data set [2] the following is noted: published work (11); cited from earlier work.
Data set [3] relates to endotoxin (LPS)-treated anesthetized rats. The experiment in a line: Endotoxin (LPS) shock in anesthetized rats. The data set is classed as in vivo, rat. To be noted: 1 μg/kg IV followed by 143 ng/kg/hr, one hour prior to LPS (12 mg/kg IV); vs vehicle/LPS. How it is done:
Male Sprague-Dawley rats (220-480 g) were anesthetized with inactin (120 mg/kg, IP). The trachea was cannulated and the animal was allowed to breath 100% O2. Polyvinyl cannulas (Norton Plastics, Akron, Ohio) were inserted into the jugular vein and the femoral artery for the purposes of infusion of saline and agents and for monitoring of blood pressure, respectively, as described for FIGS. 2 and 3. Heart rate was monitored by tachograph and body temperature was maintained at 37° C. After a 2 hour period of equilibration with saline infusion (0.25 ml/hr), peptides (1 μg/kg followed by 143 ng/kg/hr) or saline were administered, followed one hour later by LPS (12 mg/kg). Time of death was taken as time after administration of LPS when there was no longer a detectable ECG. Values shown are the mean ± sem from the indicated number of studies and were compared using either t-test (FIG. 12A) or ANOVA with Fisher's post-hoc t-test (FIG. 12B).

For data set [4] the following is noted: cited from earlier work.

Consider `NC(N)=NCCC[C@@H](N)C(=O)N[C@@H](CCCN=C(N)N)C(=O)N1CCC[C@H]1C(=O)N1C[C@H](O)C[C@H]1C(=O)NCC(=O)N[C@@H](Cc1cccs1)C(=O)N[C@@H](CO)C(=O)N1Cc2ccccc2C[C@@H]1C(=O)N1[C@H](C(=O)N[C@@H](CCCN=C(N)N)C(=O)O)C[C@@H]2CCCC[C@@H]21` [HOE140], for which the “displacement of specific binding of bradykinin to kinin B2 receptors” value on kinin B2 receptors is listed as “specifically displaced”.

With “BK2-7: bradykinin fragment PPGFSP (Bradykinin; UniProt P01042 382-387, looked up, fragment)”, the “systemic mean arterial pressure (MAP) response” value in data set [1] is “affect systemic blood pressure”.

Regarding RPPGF [RPPGF, Arg-Pro-Pro-Gly-Phe], the “stability in human plasma” value in data set [2] is “highly stable in human plasma”.

Turning to RPPGFSPFR [bradykinin], the survival time entry in data set [3] was “did not prolong life; also recorded: does not provide protection”. Besides, in data set [4], the plasma half-life is on record as ~ 15 secs.

Take “des-arg9-bradykinin (RPPGFSPF; Bradykinin; UniProt P01042 381-388, looked up, fragment)”: in the data set with kinin B2 receptors, the “displacement of specific binding of bradykinin to kinin B2 receptors” value is given as “not displaced”.
